Source: patent US20260206761A1, “HETEROARYL-TRIAZOLE COMPOUNDS AS PESTICIDES” (Bayer Aktiengesellschaft, priority 2019, published 2026)

Assays:
Assay type in all cases: in vivo
[1] = tested on: adult engorged female ticks (Rhipicephalus microplus); experiment: Rhipicephalus (Boophilus) microplus injection test; settings: 168 h, egg deposition after 7 days, read-out: activity (efficacy: infertile eggs); for pest or weed control at 4 pg: application rate 4 pg/animal; for pest or weed control at 0.02 mg: application rate 20 μg/animal
Procedure, shortened: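 Abdominal injection, 1 μL compound/DMSO, n=5 engorged adult females; climate-chamber incubation. Readout d7: fertile egg laying; doubtful eggs held to hatch (~42 d). % efficacy = infertile eggs (100% all infertile).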

[2] = tested on: adult cat fleas (Ctenocephalides felis); experiment: Ctenocephalides felis in-vitro contact test, adult cat flea; settings: application rate 5 μg/cm^2 (=500 g/ha), after 48 hours, read-out: activity (efficacy: fleas dead or moribund)
Procedure, shortened: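 Efficacy, as % of fleas dead or moribund, was read 48 h after 5-10 adult cat fleas were confined in glass tubes whose walls carried dried compound film (900 ppm, […]). Fleas failing to escape upward from a 45-50° C plate within 5 min counted as dead or moribund.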

[3] = tested on: adult unfed cat fleas (Ctenocephalides felis); experiment: Ctenocephalides felis oral test; settings: 48 h, read-out: activity (mortality)
Procedure, shortened: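 About 20 adult unfed fleas fed through parafilm on cattle blood containing compound (DMSO stock diluted in blood), blood held at 37 °C and fleas at room temperature. Mortality (%) scored after 2 days.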

[4] = tested on: larvae of the banded cucumber beetle (Diabrotica balteata); experiment: Diabrotica balteata spray test; settings: 168 h, after 7 days, read-out: activity (efficacy: seedlings grown); for pest or weed control at 100 g/ha: application rate 100 g/ha (=32 pg/well); for pest or weed control at 500 g/ha: application rate 500 g/ha (=160 pg/well)
Procedure, shortened: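 Read-out is % efficacy at day 7, 0% meaning no seedling growth and 100% growth equal to uninfested untreated controls. Test solutions (acetone/DMF concentrate diluted with water carrying 1000 ppm emulsifier) were sprayed onto 1-day-germinated wheat seeds, 5 per well, before infestation with 10-20 larvae.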

[5] = tested on: fall armyworm larvae (Spodoptera frugiperda); experiment: Spodoptera frugiperda spray test; settings: 168 h, read-out: activity (mortality)
Procedure, shortened: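 Larvae of fall armyworm placed on dried maize leaf sections previously sprayed with emulsified compound (acetone/DMF solvent, water with 1000 ppm emulsifier). Percent of caterpillars killed recorded on day 7, 0–100% scale.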

[6] = tested on: Aedes aegypti strain MONHEIM; experiment: Aedes aegypti test (AEDSAE surface treatment & contact assay); settings: 24 hours after contact, read-out: efficacy (mortality); for mortality at 4 mg/m2: surface concentration 4 mg/m^2, exposure 30 minutes; for mortality at 20 mg/m2: surface concentration 20 mg/m^2, exposure 30 minutes
Procedure, shortened: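 Percent mortality was read 24 h after adult MONHEIM mosquitoes were held for 30 min on a tile treated with compound. Compound applied from acetone solution (2 mg/ml) containing 2000 ppm rapeseed oil methyl ester, after evaporation.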

[7] = tested on: Musca domestica strain WHO-N; experiment: Musca domestica test (MUSCDO surface treatment & contact assay); settings: 24 hours after contact, read-out: efficacy (mortality); for mortality at 4 mg/m2: surface concentration 4 mg/m^2, exposure 30 minutes; for mortality at 20 mg/m2: surface concentration 20 mg/m^2, exposure 30 minutes
Procedure, shortened: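 Compound dissolved at 2 mg/ml in acetone with 2000 ppm rapeseed oil methyl ester and pipetted onto a glazed tile. After the acetone evaporated, adult WHO-N flies were exposed to the dried surface for 30 min, with % mortality scored 24 h after contact.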

| SMILES | pest or weed control at 4 pg [1] | pest or weed control at 5 µg/cm2 [2] | mortality at 100 ppm [3] | pest or weed control at 100 g/ha [4] | mortality at 100 g/ha [5] | mortality at 4 mg/m2 [6] | mortality at 20 mg/m2 [6] | mortality at 4 mg/m2 [7] | mortality at 20 mg/m2 [7] | pest or weed control at 0.02 mg [1] | pest or weed control at 500 g/ha [4] | mortality at 500 g/ha [5] |
| --- | --- | --- | --- | --- | --- | --- | --- | --- | --- | --- | --- | --- |
| Cc1nc([C@H](C)NC(=O)c2cc(C(F)(F)F)cc(S(C)(=O)=O)c2)n(-c2ccc(C#N)cn2)n1 [II-52] | 100% | 100% | 100% | 100% | 100% | 80 to 100% | 80 to 100% | 80 to 100% | 80 to 100% |  |  |  |
| Cc1nc([C@H](C)NC(=O)c2cc(C(F)(F)F)n(C)n2)n(-c2ncccn2)n1 [II-25] | 100% | 100% |  |  |  | 80 to 100% | 80 to 100% | 80 to 100% | 80 to 100% | 100% | 100% |  |
| C[C@H](NC(=O)c1cc(Cl)cc(S(=O)(=O)C(F)F)c1)c1ncnn1-c1ncccn1 [II-34] | 100% | 100% | 100% | 100% | 83% | 80 to 100% | 80 to 100% |  | 80 to 100% | 100% | 100% | 100% |
| C[C@H](NC(=O)c1cc(Cl)cc(S(C)(=O)=O)c1)c1ncnn1-c1ncc(OC(F)F)cn1 [II-42] | 100% | 100% | 100% | 80% |  | 80 to 100% | 80 to 100% |  |  | 100% |  |  |
| C[C@H](NC(=O)c1cc(OC(F)(F)F)cc(C2CC2)c1)c1ncnn1-c1ccc(Cl)cn1 [II-23] | 100% | 100% |  | 100% | 100% | 80 to 100% | 80 to 100% | 80 to 100% | 80 to 100% | 100% | 100% | 100% |
| Cc1nc([C@H](C)NC(=O)c2cc(C(F)(F)F)n(C)n2)n(-c2ccc(C#N)cn2)n1 [II-7] | 100% | 100% | 100% | 100% | 100% | 80 to 100% | 80 to 100% |  | 80 to 100% | 100% | 100% | 100% |
| C[C@H](NC(=O)c1cc(C#N)cc([S+](C)[O-])c1)c1ncnn1-c1ccc(C#N)cn1 (stereo partly shown) [II-12] | 100% | 100% |  | 100% |  | 80 to 100% | 80 to 100% |  |  | 100% | 100% | 100% |
| C[C@H](NC(=O)c1cc(C(F)(F)F)cc(S(C)(=O)=O)c1)c1ncnn1-c1ccc(Cl)cn1 [II-16] | 100% | 100% | 100% | 100% | 100% | 80 to 100% | 80 to 100% |  |  | 100% | 100% | 100% |
| Cc1nc([C@H](C)NC(=O)c2cc(Cl)cc(S(=O)(=O)C(F)F)c2)n(-c2ccc(C#N)cn2)n1 [II-35] | 100% | 100% | 100% | 100% |  | 80 to 100% | 80 to 100% | 80 to 100% | 80 to 100% | 100% | 100% |  |
